For data set [1], the system named is HepG2. Put plainly: Hypoglycemic activity in Homo sapiens (human) HepG2 cells assessed as glucose consumption at 10 mg/l after 24 hr by glucose enzymatic assay (reference value: 1.972 +/-0.071 mmol/l). In kind it is functional.
The test system of data set [2] is HepG2. Put plainly: Cytotoxicity against Homo sapiens (human) HepG2 cells assessed as absorbance at 490 nm by MTT assay (reference value: 0.574 +/-0.019 no unit). The note with it: hepg2, 10 mg/L. Type of data set: cell-based.
The subject of data set [3] is HepG2. Put plainly: Ratio of glucose consumption to cytotoxic OD490 absorbance for Homo sapiens (human) HepG2 cells (reference value: 3.438 +/-0.139 no unit).
Data set [4] concerns HepG2. Description: Hypoglycemic activity in Homo sapiens (human) HepG2 cells assessed as glucose consumption at 1 mg/l after 24 hr by glucose enzymatic assay (reference value: 1.972 +/-0.071 mmol/l). In kind it is functional.

Regarding `CN(C)C(=O)c1cc(O)c2c(c1)C(=O)c1cccc(O)c1C2=O`, the Activity in the data set on HepG2 [1] was found to be 2.485 mmol/L; in the data set on HepG2 [4], 2.444 mmol/L. Besides, in the data set with HepG2 [2], the OD is recorded as 0.56. Besides, the Ratio in the data set on HepG2 [3] came out at 4.449.

Regarding `CN(C)C(=N)NC(=N)N` [METFORMIN], the Activity with HepG2 [1] was 2.25 mmol/L. The OD in the data set with HepG2 [2] worked out at 0.574. For the same molecule, in the data set on HepG2 [3], the Ratio is listed as 3.923.

In the case of `CC(=O)Oc1cccc2c1C(=O)c1c(OC(C)=O)cc(C(=O)OCc3ccc([N+](=O)[O-])cc3)cc1C2=O`, the Activity was determined as 2.268 mmol/L in the data set on HepG2 [1] and 2.198 mmol/L with HepG2 [4]. Besides, the OD in the data set with HepG2 [2] is 0.573. For the same molecule, the Ratio with HepG2 [3] turned out to be 3.958.

As to `CC(C)(C)[Si](C)(C)Oc1cccc2c1C(=O)c1c(O[Si](C)(C)C(C)(C)C)cc(C(=O)NC3CCCC3)cc1C2=O`, the Activity was determined as 2.578 mmol/L in the data set with HepG2 [1] and 2.369 mmol/L in the data set with HepG2 [4]. In addition, the OD in the data set with HepG2 [2] came to 0.565. Further, in the data set on HepG2 [3], the Ratio was 4.563.

Turning to `O=C1c2cccc(O)c2C(=O)c2c(O)cc(C(=O)N3CCCC3)cc21`, the Activity in the data set with HepG2 [1] turned out to be 2.315 mmol/L; with HepG2 [4], 2.379 mmol/L. Besides, in the data set on HepG2 [2], the OD was determined as 0.565. For the same molecule, the Ratio in the data set on HepG2 [3] is recorded as 4.116.

For the molecule `CC(C)(C)[Si](C)(C)Oc1cccc2c1C(=O)c1c(O[Si](C)(C)C(C)(C)C)cc(C(=O)OCc3ccc([N+](=O)[O-])cc3)cc1C2=O`, the Activity came to 2.529 mmol/L in the data set with HepG2 [1] and 2.576 mmol/L in the data set with HepG2 [4]. The OD in the data set with HepG2 [2] came out at 0.563. Besides, the Ratio in the data set on HepG2 [3] was 4.499.

Turning to `CC(=O)Oc1cccc2c1C(=O)c1c(OC(C)=O)cc(C(=O)N3CCCC3)cc1C2=O`, the Activity with HepG2 [1] worked out at 2.541 mmol/L; with HepG2 [4], 2.476 mmol/L. For the same molecule, the OD with HepG2 [2] stood at 0.591. Further, the Ratio in the data set with HepG2 [3] was 4.304.

With `CC(=O)Oc1cccc2c1C(=O)c1c(OC(C)=O)cc(C(=O)NC3CCCC3)cc1C2=O`, the Activity in the data set on HepG2 [1] is recorded as 2.256 mmol/L; with HepG2 [4] it was 2.151 mmol/L. Besides, the OD in the data set with HepG2 [2] is on record as 0.577. Besides, the Ratio in the data set with HepG2 [3] was determined as 3.916.

The values are drawn from ChEMBL document CHEMBL3045105, “Synthesis and hypoglycemic activity evaluation of rhein amide derivatives” (Med Chem Res, 2013).
